Test results published in patent publication US5852033A, “Methods of treatment using lamellarin-class alkaloids” (Pharma Mar, s.a., priority 1995, dated 1998).
Values after ≈ are worked out from the molar mass of the structure shown. Read-outs that look alike come from different tables or passages of the source.

What was measured:
CHOC5 (MDR) = assay: LAMELLARINS TOXICITY TO RESISTANT (MDR) TUMOR CELL LINE CHOC5 (MTT); assay type: cell-based, chinese hamster; details: Cricetulus griseus, 72 h, read-out: ACTIVITY: IC50
Procedure: (§1) Sensitive and MDR cells were maintained, in logarithmic phase of growth, in Eagle's Minimum Essential Medium, with Earle's Balanced Salts, with non-essential amino acids, with 2.0 mM L-glutamine, without sodium bicarbonate (EMEM/neaa), supplemented with 5% Fetal Calf Serum (FCS), 10^-2 M sodium bicarbonate and 0.1 g/l penicillin G+0.1 g/l streptomycin sulfate.
(§2) In Vitro cell cytotoxicity was determined using the 3-[4,5-dimethylthiazol-2-yl]-2,5-dipheniltetrazolium bromide (MTT), from Sigma Ref:M-2128, for quantitative measurement of cell growth and viability. See, T. Mosmann, "Rapid Colorimetric Assay for Cellular Growth and Survival: Application to Proliferation and Cytotoxicity Assays," Journal of Immunological Methods, 65: 55-63 (1983).
(§3) The tumor cell lines employed have been: P-388 (ATCC CCL 46), suspension culture of a lymphoid neoplasm from a DBA/2 mouse and its corresponding MDR cell line P-388/SCHABEL; CHOB1 (ATCC CCL 16), monolayer culture of chinese hamster ovary and its corresponding MDR cell line CHOC5. See, Rauscher Ill, et al., "Characterization of Auromycin-Resistant Hamster Cell Mutants that Display a Multidrug Resistance Phenotype," Molecular Pharmacology, 38: 198-206 (1990).
(§4) This form of assay employs 96-well cell culture plates […]. Cells were seeded into wells at 1×10^3 cells per well in 100 μl aliquots of EMEM 5% FCS containing different concentrations of the corresponding lamellarins and other compounds (standards) to be tested. Two separate sets of cultures without drugs were seeded, one as control of growth to ensure that cells remained in exponential phase of growth, and another without cells as control of medium. All determinations were carried out in duplicate.
(§5) After three days of incubation at 37° C., 10% CO2 in a 98% humid atmosphere, 150 μg of MTT is added to each well in 50 μl aliquots of assay medium. Plates were incubated for an additional 4 hours and 100 μl aliquots of isopropanol were added to each well. The broad absorption spectrum for the isopropanol solution of this crystal is optimal at 570 nm. Optical density values were obtained with the help of a Dynatech microplate reader and the results of the assay were used to generate graphics from which IC50 was calculated; i.e., wherein the IC50 is the test concentration which produces 50% cell growth inhibition.

P-388 = assay: LAMELLARINS TOXICITY TO SENSITIVE TUMOR CELL LINE P-388 (MTT); assay type: cell-based; details: Mus musculus, P388, 72 h, read-out: ACTIVITY: IC50
Procedure: as §1, §2, §3, §4, §5

P-388/SCHABEL (MDR) = assay: LAMELLARINS TOXICITY TO RESISTANT (MDR) TUMOR CELL LINE P-388/SCHABEL (MTT); assay type: cell-based; details: Mus musculus, P388, 72 h, read-out: ACTIVITY: IC50
Procedure: as §1, §2, §3, §4, §5

CHOB1 = assay: LAMELLARINS TOXICITY TO SENSITIVE TUMOR CELL LINE CHOB1 (MTT); assay type: cell-based, chinese hamster; details: Cricetulus griseus, 72 h, read-out: ACTIVITY: IC50
Procedure: as §1, §2, §3, §4, §5

A549 = assay: Lamellarin in vitro activity vs. tumor cell lines, A549; details: for IC50: Homo sapiens; for in vitro antitumor activities: compared with lamellarins I, K and L, particularly A549 cells
P388 = assay: Lamellarin in vitro activity vs. tumor cell lines, P388; details: Mus musculus
[1] = system: P388 Lymphocytic Leukemia; assay: In vivo anti-tumor activity vs P388 lymphocytic leukemia; set-up: species or system mouse; details: total 75.000 mg/kg, QD 1-5, ip
HT-29 = assay: Lamellarin in vitro activity vs. tumor cell lines, HT-29; assay type: cell-based; details: Homo sapiens; HT-29, Table IV
MLR = assay: Immunomodulatory activity (LcV:MLR); assay type: cell-based; details: in words
MEL-28 = assay: Lamellarin in vitro activity vs. tumor cell lines, MEL-28; assay type: cell-based; details: Homo sapiens, SK-MEL-28; MEL-28, Table IV
[2] = P-388, sensitive, MTT, three days
[3] = P-388/SCHABEL (MDR), MTT, three days
[4] = CHOB1, sensitive, MTT, three days
[5] = A549, read-out: cytotoxicity IC50
[6] = P388, read-out: cytotoxicity IC50

Row | Compound | IC50 (CHOC5 (MDR); CHOC5 (MDR), MTT, three days) [µg/mL] | IC50 (P-388; [2]) [µg/mL] | IC50 (P-388/SCHABEL (MDR); [3]) [µg/mL] | IC50 (CHOB1; [4]) [µg/mL] | IC50 (A549; A549) [µg/mL] | IC50 (P388; P388) [µg/mL] | IC50 (HT-29) [µg/mL] | further results
1 | COc1cc(-c2c3c4cc(OC)c(O)cc4oc(=O)c3n3ccc4c(OC)c(OC)c(OC)cc4c23)ccc1O [Lamellarin B] | 10 (≈ 18.4 µM) | 5.5 (≈ 10.1 µM) | 5.5 (≈ 10.1 µM) | 3 (≈ 5.52 µM) | – | – | – | –
2 | COc1cc(-c2c3n(c4c(=O)oc5cc(O)c(OC)cc5c24)CCc2c-3cc(OC)c(OC)c2O)ccc1O [Lamellarin K] | 0.4 (≈ 0.753 µM) | 0.1 (≈ 0.188 µM) | 0.1 (≈ 0.188 µM) | 0.1 (≈ 0.188 µM) | 0.25 (≈ 0.47 µM) | 0.25 (≈ 0.47 µM) | 1 (≈ 1.88 µM) | IC50 (A549; [5]): ~0.25 µg/mL (≈ 0.47 µM); IC50 (P388; [6]): ~0.25 µg/mL (≈ 0.47 µM); % T/C [1]: > 135.0%; Body Weight Change Day 5 [1]: 1.2 gm; Body Weight Day 5 [1]: 20.7 ± 0.5 gm; Mean Survival Time [1]: 28.3 ± 5.9; Body Weight Day 0 ([1]; baseline): 19.5 ± 0.5 gm; immunomodulatory activity (MLR): moderate immunomodulatory activity
3 | COc1ccc(-c2c3n(c4c(=O)oc5cc(OC(C)=O)c(OC)cc5c24)CCc2cc(OC(C)=O)c(OC)cc2-3)cc1OC(C)=O [Lamellarin L-triacetate] | 1.5 (≈ 2.39 µM) | 1.5 (≈ 2.39 µM) | 1.5 (≈ 2.39 µM) | 1.5 (≈ 2.39 µM) | – | – | – | –
4 | COc1cc2c(cc1O)oc(=O)c1c2c(-c2ccc(OC)c(OC)c2)c2n1CCc1c-2cc(OC)c(OC)c1OC [Lamellarin I] | 1 (≈ 1.79 µM) | 2.5 (≈ 4.47 µM) | 2.5 (≈ 4.47 µM) | 0.2 (≈ 0.357 µM) | 1 (≈ 1.79 µM) | 1 (≈ 1.79 µM) | 2 (≈ 3.57 µM) | IC50 (A549; [5]): ~0.25 µg/mL (≈ 0.447 µM); IC50 (P388; [6]): ~0.25 µg/mL (≈ 0.447 µM)
5 | COc1cc(-c2c3n(c4c(=O)oc5cc(O)c(OC)cc5c24)C(O)Cc2c-3cc(OC)c(OC)c2OC)ccc1O (centres unmarked) [Lamellarin A] | 0.4 (≈ 0.712 µM) | 0.5 (≈ 0.89 µM) | 0.5 (≈ 0.89 µM) | 0.2 (≈ 0.356 µM) | – | – | – | –
6 | COc1cc2c(cc1O)CCn1c-2c(-c2ccc(OC)c(OC)c2)c2c3cc(OC)c(O)cc3oc(=O)c21 [Lamellarin J] | 0.6 (≈ 1.16 µM) | 1.5 (≈ 2.91 µM) | 2 (≈ 3.88 µM) | 0.3 (≈ 0.582 µM) | 0.025 (≈ 0.0485 µM) | 0.1 (≈ 0.194 µM) | 2.5 (≈ 4.85 µM) | in vitro antitumor activities (A549): significantly better, particularly against A549 cells, than the lamellarins I, K and L; IC50 (MEL-28): 2.5 µg/mL (≈ 4.85 µM)
7 | COc1cc(-c2c3c4cc(OC)c(O)cc4oc(=O)c3n3ccc4c(O)c(OC)c(OC)cc4c23)ccc1O [Lamellarin M] | – | – | – | – | 0.025 (≈ 0.0472 µM) | 0.05 (≈ 0.0944 µM) | 0.5 (≈ 0.944 µM) | in vitro antitumor activities (A549): significantly better, particularly against A549 cells, than the lamellarins I, K and L; IC50 (CHOC5 (MDR)): 0.09 µg/mL (≈ 0.17 µM); IC50 (P-388): 0.08 µg/mL (≈ 0.151 µM); IC50 (P-388/SCHABEL (MDR)): 0.09 µg/mL (≈ 0.17 µM); IC50 (MEL-28): 0.5 µg/mL (≈ 0.944 µM); IC50 (CHOB1): 0.04 µg/mL (≈ 0.0755 µM)
8 | C/C=C/C[C@@H](C)C(=O)[C@H]1C(=O)N[C@@H](C(C)C)C(=O)N(C)CC(=O)N(C)[C@@H](CC(C)C)C(=O)N[C@@H](C(C)C)C(=O)N(C)[C@@H](CC(C)C)C(=O)N[C@@H](C)C(=O)N[C@H](C)C(=O)N(C)[C@@H](CC(C)C)C(=O)N(C)[C@@H](CC(C)C)C(=O)N(C)[C@@H](C(C)C)C(=O)N1C [PSC833, reference compound] | 0.1 (≈ 0.0823 µM) | 0.02 (≈ 0.0165 µM) | 0.05 (≈ 0.0412 µM) | 0.04 (≈ 0.0329 µM) | – | – | – | –
9 | COc1cc(-c2c3c4cc(OC)c(OC(C)=O)cc4oc(=O)c3n3ccc4cc(OC(C)=O)c(OC)cc4c23)ccc1OC(C)=O [Lamellarin D-triacetate] | 0.04 (≈ 0.0639 µM) | 0.07 (≈ 0.112 µM) | 0.09 (≈ 0.144 µM) | 0.03 (≈ 0.048 µM) | – | – | – | –
10 | COc1ccc(-c2c3n(c4c(=O)oc5cc(OC(C)=O)c(OC)cc5c24)CCc2c-3cc(OC)c(OC)c2OC)cc1OC [Lamellarin I-acetate] | 5 (≈ 8.31 µM) | 5.5 (≈ 9.14 µM) | 5.5 (≈ 9.14 µM) | 2.5 (≈ 4.16 µM) | – | – | – | –
11 | COc1ccc(-c2c3c4cc(OC)c(OC(C)=O)cc4oc(=O)c3n3ccc4cc(OC(C)=O)c(OC)cc4c23)cc1OC(C)=O [Lamellarin N-triacetate] | 0.1 (≈ 0.16 µM) | 0.09 (≈ 0.144 µM) | 0.2 (≈ 0.32 µM) | 0.06 (≈ 0.0959 µM) | 0.012 (≈ 0.0192 µM) | 0.1 (≈ 0.16 µM) | 5 (≈ 7.99 µM) | in vitro antitumor activities (A549): significantly better, particularly against A549 cells, than the lamellarins I, K and L; IC50 (MEL-28): 5 µg/mL (≈ 7.99 µM)
12 | COc1cc(-c2c3n(c4c(=O)oc5cc(OC(C)=O)c(OC)cc5c24)CCc2c-3cc(OC)c(OC)c2OC(C)=O)ccc1OC(C)=O [Lamellarin K-triacetate] | 0.1 (≈ 0.152 µM) | 0.06 (≈ 0.0912 µM) | 0.1 (≈ 0.152 µM) | 0.1 (≈ 0.152 µM) | – | – | – | –
13 | COc1ccc(-c2c3n(c4c(=O)oc5cc(O)c(OC)cc5c24)CCc2cc(O)c(OC)cc2-3)cc1O [Lamellarin L] | 0.6 (≈ 1.2 µM) | 0.6 (≈ 1.2 µM) | 0.7 (≈ 1.4 µM) | 0.4 (≈ 0.798 µM) | 0.25 (≈ 0.499 µM) | 0.25 (≈ 0.499 µM) | 2 (≈ 3.99 µM) | IC50 (A549; [5]): ~0.25 µg/mL (≈ 0.499 µM); IC50 (P388; [6]): ~0.25 µg/mL (≈ 0.499 µM); immunomodulatory activity (MLR): moderate immunomodulatory activity
14 | COc1ccc(CCN(C)CCCC(C#N)(c2ccc(OC)c(OC)c2)C(C)C)cc1OC (centres unmarked) [Verapamil, reference compound] | 4 (≈ 8.8 µM) | 10 (≈ 22 µM) | 10 (≈ 22 µM) | 9 (≈ 19.8 µM) | – | – | – | –
15 | COc1cc(-c2c3c4cc(OC)c(OC(C)=O)cc4oc(=O)c3n3ccc4c(OC(C)=O)c(OC)c(OC)cc4c23)ccc1OC(C)=O [Lamellarin M-triacetate] | 2 (≈ 3.05 µM) | 0.6 (≈ 0.915 µM) | 0.7 (≈ 1.07 µM) | 0.5 (≈ 0.763 µM) | – | – | – | –
16 | COc1ccc(-c2c3n(c4c(=O)oc5cc(OC)c(OC)cc5c24)CCc2c-3cc(OC)c(OC)c2OC)cc1OC [Lamellarin I-Methylate] | 2.5 (≈ 4.36 µM) | 2.5 (≈ 4.36 µM) | 3 (≈ 5.23 µM) | 0.5 (≈ 0.872 µM) | – | – | – | –
